ChEMBL document CHEMBL1201862, “PubChem BioAssay data set” (2004)
Active and inactive are the calls of the source.

Columns and labels:
Cytochrome P450 2C19 = Cytochrome P450 2C19 (Homo sapiens, UniProt P33261); experiment: Cytochrome panel assay with activity outcomes. Panel member name: p450-cyp2c19 Compounds with AC50 equal or less than 10 uM are considered active; format: functional; conditions: read-out: AC50
Nonstructural protein 1 = Nonstructural protein 1 (Influenza A virus, UniProt Q194T2); format: functional, Influenza A virus (A/California/07/2009(H1N1))
Bcl-2-related protein A1 = target: T1, Bcl-2-related protein A1 (Mus musculus, UniProt Q07440); format: functional;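 further: confirmatory dose–response counterscreen on Bfl-1, used to check hits from a UBC13 polyubiquitin inhibitor campaign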
T1 sequence (Q07440 whole entry): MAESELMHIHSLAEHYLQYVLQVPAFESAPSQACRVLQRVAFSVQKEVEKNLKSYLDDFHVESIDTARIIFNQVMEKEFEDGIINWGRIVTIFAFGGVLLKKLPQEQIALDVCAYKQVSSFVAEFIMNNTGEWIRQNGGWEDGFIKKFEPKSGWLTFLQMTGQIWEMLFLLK

[1] = Luminescence Cell-Based Dose Retest to Confirm Inhibitors of Cancer Stem Cells. [Related pubchem assays (depositor defined):AID2717, AID2721]; format: functional; conditions: Homo sapiens
[2] = target: T2, Ubiquitin-conjugating enzyme E2 N (Homo sapiens, UniProt P61088); format: functional
T2 sequence (P61088 whole entry): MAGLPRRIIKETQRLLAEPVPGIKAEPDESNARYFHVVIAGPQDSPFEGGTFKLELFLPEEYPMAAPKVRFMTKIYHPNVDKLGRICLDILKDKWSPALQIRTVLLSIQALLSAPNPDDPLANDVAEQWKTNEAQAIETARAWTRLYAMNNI

[3] = target: T2, Ubiquitin-conjugating enzyme E2 N; format: functional; remark: listed apart in the source
[4] = growth suppression of beta-catenin-knockout colon cells, dose response, cell-based, HCT116, human colon tumor (AID 1045); format: functional;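 further: HCT116 colon tumor cells with beta catenin knocked out; cells exposed to compound for 60 hours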
[5] = growth suppression of PTEN-null colon cells, dose response, cell-based, HCT116 PTEN knockout (AID 1047); format: functional;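 further: HCT116 colon tumor cells with PTEN knocked out; cells exposed to compound for 60 hours before readout; potency for loss of cell viability measured by luminescence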
cells = format: functional
[6] = inhibitors of SNCA 5'UTR-driven reporter translation, confirmation, H4 neuroglioma cells, luminescence (AID 1988); format: functional, cell-based
[7] = inhibitors of firefly luciferase expression or activity, dose response, H4 neuroglioma cells, luminescence (AID 1990); format: functional, cell-based
[8] = Luminescence Cell-Based Dose Response HTS to Identify Inhibitors of 5'UTR Stem-Loop Driven Prion Protein mRNA Translation in H4 Neuroglioblastoma Cells. [Related pubchem assays: 1827 (Project Summary), 1813 (Primary HTS)]; format: functional
[9] = target: T3, RNA-binding protein pos-1 (Caenorhabditis elegans, UniProt G5EF15); experiment: inhibitors of POS-1/mex-3 RNA binding, dose response, biochemical, fluorescence polarization (AID 1964);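 further: purified POS-1 fused to maltose binding protein made in E. coli; potency of compounds blocking POS-1 binding to fluorescent RNA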
T3 sequence (G5EF15 whole entry): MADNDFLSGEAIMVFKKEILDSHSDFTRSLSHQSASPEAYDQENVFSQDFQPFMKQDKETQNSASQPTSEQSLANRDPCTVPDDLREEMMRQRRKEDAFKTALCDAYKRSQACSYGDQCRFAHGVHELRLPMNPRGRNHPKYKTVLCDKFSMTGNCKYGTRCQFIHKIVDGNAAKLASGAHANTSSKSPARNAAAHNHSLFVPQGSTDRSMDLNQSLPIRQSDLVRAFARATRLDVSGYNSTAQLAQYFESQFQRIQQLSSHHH

[10] = target: T4, Zinc finger protein mex-5 (Caenorhabditis elegans, UniProt Q9XUB2); experiment: MEX-5/TCR-2 RNA interaction inhibitors, dose response, biochemical, C. elegans, fluorescence polarization (AID 1960)
T4 sequence (Q9XUB2 whole entry): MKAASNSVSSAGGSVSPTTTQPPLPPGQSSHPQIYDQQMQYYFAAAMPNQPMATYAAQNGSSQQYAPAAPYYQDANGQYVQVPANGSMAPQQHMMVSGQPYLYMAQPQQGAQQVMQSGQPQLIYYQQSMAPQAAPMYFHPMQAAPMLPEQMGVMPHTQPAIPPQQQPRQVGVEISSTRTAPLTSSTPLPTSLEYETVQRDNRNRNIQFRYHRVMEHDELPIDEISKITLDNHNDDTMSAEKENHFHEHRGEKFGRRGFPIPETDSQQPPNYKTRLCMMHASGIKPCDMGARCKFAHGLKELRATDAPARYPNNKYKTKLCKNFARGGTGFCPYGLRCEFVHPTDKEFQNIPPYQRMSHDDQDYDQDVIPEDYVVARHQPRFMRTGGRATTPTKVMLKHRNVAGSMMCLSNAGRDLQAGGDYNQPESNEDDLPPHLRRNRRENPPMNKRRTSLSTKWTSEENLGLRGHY

[11] = inhibitors of clade B AD8 Env fusion, dose response, cell-based, cherry-pick (AID 652062); format: functional;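 further: luciferase signal from cell-cell fusion driven by HIV-1 clade B AD8 Env; potency is for inhibitors of fusion seen as a drop in luminescence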
[12] = inhibitors of HIV Env-driven cell fusion, dose response, cherry-pick (AID 652057); format: functional, cell-based
[13] = target: T5, Rac GTPase-activating protein 1 (Homo sapiens, UniProt Q9H0H5); experiment: MgcRacGAP GTPase-activating activity inhibitors, confirmation, biochemical, ADP Hunter fluorescence, primary and confirmatory (AID 624330); format: functional
T5 sequence (Q9H0H5 whole entry): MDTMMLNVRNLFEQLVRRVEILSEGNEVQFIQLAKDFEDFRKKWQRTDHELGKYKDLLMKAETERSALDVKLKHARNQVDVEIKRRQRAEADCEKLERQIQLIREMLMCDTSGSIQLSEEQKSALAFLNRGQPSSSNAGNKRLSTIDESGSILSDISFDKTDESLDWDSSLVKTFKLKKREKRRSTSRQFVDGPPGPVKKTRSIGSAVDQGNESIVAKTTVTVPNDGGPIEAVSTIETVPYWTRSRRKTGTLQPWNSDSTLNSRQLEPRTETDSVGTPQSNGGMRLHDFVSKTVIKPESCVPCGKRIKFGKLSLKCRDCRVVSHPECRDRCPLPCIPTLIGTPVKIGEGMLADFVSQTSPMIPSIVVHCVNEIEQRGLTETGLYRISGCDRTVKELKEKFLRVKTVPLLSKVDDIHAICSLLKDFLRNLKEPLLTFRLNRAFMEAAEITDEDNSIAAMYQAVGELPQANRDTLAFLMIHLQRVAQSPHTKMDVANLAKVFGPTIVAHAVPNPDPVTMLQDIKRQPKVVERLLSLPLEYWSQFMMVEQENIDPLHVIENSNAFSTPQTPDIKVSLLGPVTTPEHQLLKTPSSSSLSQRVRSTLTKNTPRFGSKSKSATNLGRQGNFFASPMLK

[14] = cytotoxicity toward NIH3T3 fibroblasts, dose response, counter-screen, cell-based, ATP luminescence, mouse fibroblasts (AID 2010); format: functional;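 further: cells exposed to compound for about 90 hours before reading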
[15] = inhibitors of intracellular T. cruzi replication, confirmation, NIH3T3 host cells, beta-gal luminescence (AID 2044); format: functional, cell-based;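 further: intracellular parasites grown in NIH/3T3 mouse fibroblasts as host cells; luminescent beta-galactosidase reporter signal from transgenic T. cruzi replicating inside host cells; inhibitors lower the luminescence signal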

Sequence of Nonstructural protein 1 (Q194T2 whole entry): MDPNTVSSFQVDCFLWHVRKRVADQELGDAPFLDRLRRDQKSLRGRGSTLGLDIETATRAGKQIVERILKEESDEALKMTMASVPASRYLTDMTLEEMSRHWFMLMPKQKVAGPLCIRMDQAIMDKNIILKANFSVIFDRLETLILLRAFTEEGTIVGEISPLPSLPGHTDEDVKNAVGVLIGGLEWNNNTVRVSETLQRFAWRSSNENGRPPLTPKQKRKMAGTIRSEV
Sequence of Cytochrome P450 2C19 (P33261 whole entry): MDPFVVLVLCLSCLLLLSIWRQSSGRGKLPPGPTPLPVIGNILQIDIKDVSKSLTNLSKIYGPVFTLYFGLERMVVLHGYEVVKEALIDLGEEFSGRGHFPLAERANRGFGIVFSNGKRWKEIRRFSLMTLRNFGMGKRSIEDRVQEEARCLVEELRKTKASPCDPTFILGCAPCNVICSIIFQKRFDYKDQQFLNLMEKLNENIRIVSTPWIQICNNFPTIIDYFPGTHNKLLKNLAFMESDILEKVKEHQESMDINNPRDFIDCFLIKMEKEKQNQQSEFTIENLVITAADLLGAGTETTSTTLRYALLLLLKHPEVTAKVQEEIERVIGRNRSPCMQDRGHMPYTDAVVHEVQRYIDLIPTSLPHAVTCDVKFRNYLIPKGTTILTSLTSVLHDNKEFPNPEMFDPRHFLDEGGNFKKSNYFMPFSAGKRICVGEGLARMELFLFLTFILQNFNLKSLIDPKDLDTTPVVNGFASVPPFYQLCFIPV

CCNc1nc(NCC)nc(N(C)N)n1
AC50 (Cytochrome P450 2C19): 0.00141 µM (inconclusive) | IC50 (Nonstructural protein 1): 12.7 µM (active)

COc1ccc(-c2sc3ccccc3c2-c2ccc(OCCN3CCOCC3)cc2)cc1
IC50 (Bcl-2-related protein A1): > 20 µM (inactive) | AC50 [1]: 0.842 µM (active) | IC50 [2]: > 20 µM (inactive) | IC50 [3]: 15.1 µM (active)

O=C1c2cccc3cccc(c23)C(=O)N1CCN1CCN(CC(O)COc2ccc3ccccc3c2)CC1 (stereo unspecified)
IC50 (Bcl-2-related protein A1): > 20 µM (inactive) | AC50 [1]: 5.08 µM (active) | EC50 [4]: 9.47 µM (active) | IC50 [2]: 3.02 µM (active) | IC50 [3]: 2.49 µM (active) | EC50 [5]: 12 µM (active)

Cc1ccc(/C=N/NC(=O)c2ccncc2)o1
IC50 (cells): 1.18 µM (active)

O=C(NNc1nc2cc3c(cc2s1)OCCO3)c1ccccc1
IC50 (cells): 48.3 µM (active)

C=CCOc1ccc(CNc2ccc(NC(=O)CCC)cc2)cc1OCC
IC50 (Nonstructural protein 1): > 100 µM (active)

CC1(C)Cc2c(sc(NC(=O)COc3ccc(Cl)cc3Cl)c2C(N)=O)C(C)(C)N1
IC50 (Bcl-2-related protein A1): > 20 µM (inactive) | EC50 [6]: > 120 µM (not active) | EC50 [7]: 17.3 µM (active) | IC50 [2]: 2.86 µM (active) | IC50 [3]: 4.55 µM (active) | EC50 [8]: 18.7 µM (active)

Cc1cccc(NC(=O)c2cc3ccccc3o2)c1
IC50 (cells): 40.5 µM (active)

CCN=C(S)N=Nc1c(O)[nH]c2ccc(C(C)C)cc12
IC50 (Bcl-2-related protein A1): > 20 µM (inactive) | IC50 [2]: 2.49 µM (active) | IC50 [3]: 6.7 µM (active)

CN(C)c1ccc(/C=C2\N=C(C(C)(C)C)OC2=O)cc1
EC50 [9]: 7.17 µM (active) | EC50 [10]: 22.3 µM (inconclusive) | IC50 (cells): 11.3 µM (active)

O=C(CNCc1ccccn1)Nc1cc(S(=O)(=O)N2CCCCC2)ccc1Cl
IC50 (Nonstructural protein 1): 6.83 µM (active)

Cc1cccc(OCCCCc2c(C)n[nH]c2C)c1
IC50 (cells): 9.67 µM (active)

COc1cccc(NC(=O)N(C)C[C@@H]2OCc3ccccc3-c3c(n(C)c4ccccc34)C(=O)N([C@@H](C)CO)C[C@@H]2C)c1
AC50 [11]: < 0.26 µM (active) | AC50 [12]: < 0.26 µM (active)

C#CCOCCOCCOCCNc1nc(N2CCN(C(=O)[C@H](CCCCN)n3cc(CN)nn3)CC2)nc(N2CCN(C(=O)[C@H](CCC(=O)O)n3cc([C@@H](N)CCCCN)nn3)CC2)n1
IC50 (Bcl-2-related protein A1): > 20 µM (inactive) | IC50 [13]: 190 µM (active) | IC50 [2]: 2.79 µM (active) | IC50 [3]: 2.85 µM (active)

Cc1nn(C(C)C(=O)N2CCOCC2)c(=O)c2nn(-c3ccccc3)c(C)c12 (stereo unspecified)
EC50 [9]: > 300 µM (not active) | EC50 [10]: > 300 µM (not active)

N=C1c2ccccc2CN1NC(=O)CC12CC3CC(CC(C3)C1)C2
EC50 [9]: > 300 µM (not active) | EC50 [10]: > 300 µM (not active)

Cc1ccc(S(=O)(=O)N[C@H]2C=C[C@H](CC(=O)N3CCC(Cc4ccccc4)CC3)O[C@H]2CO)cc1
AC50 [11]: 34.3 µM (active) | AC50 [12]: 69.4 µM (active)

COCCN=C(S)N=Nc1c(O)[nH]c2c(C)cc(C)cc12
IC50 (Bcl-2-related protein A1): > 20 µM (inactive) | IC50 [2]: 0.561 µM (active) | IC50 [3]: 6.28 µM (active)

COC(=O)c1ccc(-n2c(CCC(=O)O)ccc2-c2ccccc2)cc1
EC50 [9]: > 300 µM (not active) | EC50 [10]: > 300 µM (not active)

O=C(CCCCn1c(=O)c2ccccc2n(Cc2ccccc2)c1=O)NC1CCN(Cc2ccccc2)CC1
IC50 (Bcl-2-related protein A1): > 20 µM (inactive) | EC50 [14]: > 60 µM (not active) | IC50 [2]: 5.17 µM (active) | IC50 [3]: 9.28 µM (active) | EC50 [15]: 0.695 µM (active)

CC1(C)SC2C(C(=O)O)N=C(Cc3ccccc3)N2C1C(=O)O (stereo unspecified)
IC50 (Nonstructural protein 1): 12.2 µM (active)

O=C(CCCCn1c(=O)c2ccccc2n(Cc2ccccc2F)c1=O)NC1CCN(Cc2ccccc2)CC1
IC50 (Bcl-2-related protein A1): > 20 µM (inactive) | IC50 [2]: 5.47 µM (active) | IC50 [3]: 11.3 µM (active)

CCOC(=O)N/N=C\c1ccc([N+](=O)[O-])s1
IC50 (cells): 34 µM (active)

CCc1ccc(NC(=O)/C(C#N)=C/c2cc3ccc(C)cc3nc2N2CCOCC2)cc1
EC50 [9]: 47.9 µM (active) | EC50 [10]: 113 µM (active)

CCOC(=O)/C(C#N)=C1/C(=O)N(Cc2ccccc2)c2ccccc21
IC50 [13]: 61 µM (active) | IC50 (Nonstructural protein 1): 99.6 µM (active)
